# Test results: paper PMC6843816, “Angiotensin Converting Enzyme (ACE)-Peptide Interactions: Inhibition Kinetics, In Silico Molecular Docking and Stability Study of Three Novel Peptides Generated from Palm Kernel Cake Proteins” (Biomolecules, 2019)
# Values joined by “and” are separate entries in the source; they are usually repeats but may differ in a detail not shown here. Equal values may be shown once. Read-outs that look alike come from different tables or passages of the source. Peptide text beside a SMILES is read from it.
# Legend:
# [1] = molecular target: T1, angiotensin-converting enzyme (ACE) (Oryctolagus cuniculus, UniProt P12822); experiment: Kinetics study of ACE inhibition (Michaelis-Menten and Lineweaver-Burk plots, HHL substrate); type: biochemical, rabbit; settings: from plot of 1/Vmax against inhibitor concentration; read-out: Kiu (mM) (enzyme-inhibitor dissociation constant)
# T1 construct: Angiotensin-I-converting enzyme (rabbit lung); purchased Sigma Chemical Co., (St Louis, MO, USA); host or cells: rabbit lung tissue
# T1 sequence (P12822 34-1310): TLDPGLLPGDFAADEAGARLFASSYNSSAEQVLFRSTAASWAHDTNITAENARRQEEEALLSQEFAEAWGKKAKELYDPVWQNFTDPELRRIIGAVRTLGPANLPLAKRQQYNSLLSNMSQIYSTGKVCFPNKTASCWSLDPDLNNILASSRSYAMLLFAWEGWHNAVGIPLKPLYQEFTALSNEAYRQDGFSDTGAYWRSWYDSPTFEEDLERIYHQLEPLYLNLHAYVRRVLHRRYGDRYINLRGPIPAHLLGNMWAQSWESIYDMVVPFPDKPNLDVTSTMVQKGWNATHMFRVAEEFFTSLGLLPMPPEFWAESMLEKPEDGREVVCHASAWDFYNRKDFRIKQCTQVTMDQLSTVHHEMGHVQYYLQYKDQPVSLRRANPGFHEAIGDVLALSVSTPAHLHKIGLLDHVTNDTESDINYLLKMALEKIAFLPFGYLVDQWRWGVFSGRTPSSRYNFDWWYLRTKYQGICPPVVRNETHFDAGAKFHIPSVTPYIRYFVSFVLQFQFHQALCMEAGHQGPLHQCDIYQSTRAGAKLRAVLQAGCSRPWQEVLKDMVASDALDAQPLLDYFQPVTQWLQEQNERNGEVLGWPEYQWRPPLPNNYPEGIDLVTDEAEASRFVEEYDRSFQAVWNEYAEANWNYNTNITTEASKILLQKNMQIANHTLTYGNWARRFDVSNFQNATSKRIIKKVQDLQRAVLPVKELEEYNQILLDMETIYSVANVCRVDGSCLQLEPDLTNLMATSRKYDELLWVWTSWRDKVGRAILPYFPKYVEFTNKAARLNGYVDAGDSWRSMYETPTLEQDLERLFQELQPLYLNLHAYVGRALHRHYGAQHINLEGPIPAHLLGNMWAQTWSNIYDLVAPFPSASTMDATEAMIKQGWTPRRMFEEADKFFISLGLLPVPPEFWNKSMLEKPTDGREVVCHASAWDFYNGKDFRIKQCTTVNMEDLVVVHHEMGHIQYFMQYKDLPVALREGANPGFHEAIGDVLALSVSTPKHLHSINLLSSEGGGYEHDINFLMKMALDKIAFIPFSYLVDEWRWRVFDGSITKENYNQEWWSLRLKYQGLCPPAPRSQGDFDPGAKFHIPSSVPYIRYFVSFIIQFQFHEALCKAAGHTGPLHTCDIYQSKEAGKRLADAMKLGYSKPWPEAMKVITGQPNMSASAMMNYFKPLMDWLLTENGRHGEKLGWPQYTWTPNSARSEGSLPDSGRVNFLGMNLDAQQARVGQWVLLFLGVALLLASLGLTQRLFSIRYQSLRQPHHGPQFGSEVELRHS
# Procedure: Mode of enzyme inhibition, maximum initial velocity (Vmax), Michaelis-Menten constant (Km), inhibitory constant (Ki) and catalytic efficiency were determined using Michaeles-Menten and Lineweaver-Burk plots of 1/v versus 1/[S].
# Enzyme activity was shown as nmol hippuric acid produced per min of enzymatic reaction. Michaelis-Menten and Lineweaver-Burk plots were created using GRAPHPAD PRISM 6.07 (GraphPad, Software Inc., San Diego, CA, USA) software. Vmax and Km were calculated using the same software. Kiu was calculated from the plot of 1/Vmax against inhibitor concentration at the intercept on the inhibitor concentration axis).
# [2] = molecular target: T1, angiotensin-converting enzyme (ACE); experiment: Peptide stability study: hydrolysis of peptides by ACE, RP-HPLC; type: in vitro ADME, rabbit; settings: 37 °C, peptide 4 mM; for metabolised at 0.5 h, 2.4 mM / metabolised at 1 h, 2.4 mM / metabolised at 2 h, 2.4 mM / metabolised at 3 h, 2.4 mM: rabbit, isolated angiotensin-converting enzyme (ACE), read-out: Cleavage (%); for metabolised at 1 h, 2.4 mM: incubation with ACE 1 h; for metabolised at 2 h, 2.4 mM: incubation with ACE 2 h
# Procedure: Peptide stability study was carried out using the method described by Forghani et al. and Yang, Marczak, Yokoo, Usui and Yoshikawa with modifications. Each peptide solution (225 µL), at a concentration of 4 mM, was incubated with 150 µl of ACE (100 mU/mL) at 37 °C and incubation time of 0, 0.5, 1, 2 and 3 h. Peptide samples were withdrawn at their respective incubation time separately and kept in ice prior to analysis by HPLC. A 20-µL sample was loaded onto a Hypersil GOLD C18 column (4.6 × 250 mm) attached to a LC 20AT apparatus (Shimadzu Co., Kyoto, Japan). The column was conditioned with eluent A (0.1% TFA in DW) and eluted with 100% eluent A from 0 to 10 min. The peptides were eluted with eluent B (0.1% TFA in CH3CN) with a gradient elution of 0–100% for 10–50 min. The absorbance was read at 215 nm.
# [3] = molecular target: T1, angiotensin-converting enzyme (ACE); experiment: ACE-inhibitory capacity of peptides with and without pre-incubation with ACE; IC50; type: biochemical, rabbit; settings: for IC50: unit given, not in Table 5, read-out: ACE Inhibition (IC50); for ACE-Inhibitory Capacity (%) Without Pre-Incubation: without pre-incubation with ACE
# [4] = molecular target: ACE; settings: read-out: Kiu, cited from earlier work
# [5] = peptides generated from Stichopus horrens
Ki [1] [mM],Cleavage (%) ([2]; incubation with ACE 0.5 h),Cleavage (%) ([2]; incubation with ACE 3 h),"metabolised at 0.5 h, 2.4 mM ([2]; incubation with ACE 0.5 h) [%]","metabolised at 1 h, 2.4 mM [2] [%]","metabolised at 2 h, 2.4 mM [2] [%]","metabolised at 3 h, 2.4 mM ([2]; incubation with ACE 3 h) [%]",IC50 [3] [µM],ACE-Inhibitory Capacity (%) With Pre-Incubation [3] [%],ACE-Inhibitory Capacity (%) Without Pre-Incubation [3] [%],Compound,"Ki [4, 5] [µM]","Ki ([4]; ref Udenigwe, et al. 31) [µM]"
3.18,46,97%,46 ± 1.5,65 ± 2.6,86 ± 3.1,97 ± 3.4,239,75 ± 2.11,70 ± 1.15,CC(C)C[C@H](NC(=O)[C@H](CC(C)C)NC(=O)[C@H](C)NC(=O)[C@H](Cc1ccc(O)cc1)NC(=O)[C@H](Cc1c[nH]cn1)NC(=O)CNC(=O)[C@H](C)NC(=O)CNC(=O)[C@H](CCC(=O)O)NC(=O)[C@H](CCC(N)=O)NC(=O)[C@@H](NC(=O)CN)C(C)C)C(=O)O [GVQEGAGHYALL] (H-GVQEGAGHYALL-OH; N-terminus and C-terminus assumed),,
,,,,,,,,,,SAAVGSP,1570,
,,,,,,,,,,WVYY,,60
,,,,,,,,,,CRQNTLGHNTQTSIAQ,210,
,,,,,,,,,,VSRHFASYAN,610,
2,43,68%,43 ± 2,42 ± 1.6,63 ± 3,68 ± 3.4,202,56 ± 1.34,55 ± 1.81,C[C@H](NC(=O)[C@@H](N)Cc1c[nH]c2ccccc12)C(=O)N[C@@H](Cc1ccccc1)C(=O)N[C@@H](CO)C(=O)O [WAFS] (H-WAFS-OH; N-terminus and C-terminus assumed),,

Compound,Ki [1] [mM],Cleavage (%) ([2]; incubation with ACE 0.5 h),Cleavage (%) ([2]; incubation with ACE 3 h),"metabolised at 0.5 h, 2.4 mM ([2]; incubation with ACE 0.5 h) [%]","metabolised at 1 h, 2.4 mM [2] [%]","metabolised at 2 h, 2.4 mM [2] [%]","metabolised at 3 h, 2.4 mM ([2]; incubation with ACE 3 h) [%]",IC50 [3] [µM],ACE-Inhibitory Capacity (%) With Pre-Incubation [3] [%],ACE-Inhibitory Capacity (%) Without Pre-Incubation [3] [%],"Ki [4, 5] [µM]","Ki ([4]; ref Udenigwe, et al. 31) [µM]"
CC(C)C[C@H](NC(=O)[C@H](CC(C)C)NC(=O)[C@H](CC(C)C)NC(=O)[C@@H](N)Cc1ccc(O)cc1)C(=O)N[C@@H](CCCCN)C(=O)O [YLLLK] (H-YLLLK-OH; N-terminus and C-terminus assumed),,91.7,94% and 94.3%,92 ± 2.8,93 ± 1.9,94 ± 3,94 ± 2.7,47,80 ± 2.04,100 ± 2.99,,
